In US9393316B2, “Cancer targeting peptides for enhancing anti-cancer drug delivery and therapeutic efficiencies” (priority 2014, dated 2016):

Key:
[1] = system: colorectal cancer; assay: Cytotoxicity of several anticancer drugs; format: cell-based; details: compared with other colon and rectal cancer drugs approved by the FDA
[2] = system: HCT116 xenografts; assay: In vivo peptide competitive inhibition of phage tumor homing; set-up: species or system mice; details: co-injected with corresponding phage clone
Procedure: (§1) Non-obese diabetic-severe combined immunodeficiency (NOD/SCID) mice were injected subcutaneously (s.c.) into the dorsolateral flank with 5×10^6 HCT116 cells. When the xenograft tumor size reached 300±50 mm^3, the mice were injected intravascularly (i.v.) with 2×10^11 pfu of the targeting phage or control phage M13KO7. Seven min after injection, the mice were sacrificed and perfused through the heart with 50 mL of PBS to wash unbound phages. After perfusion, xenograft tumor and mouse organs were taken out, washed three times with cold PBS, and cut into pans, with some of them homogenized. The phages bound to each tissue sample were recovered by log-phase Escherichia coli ER2738 culture and were titered on LB/IPTG/X-Gal agar plates. In peptide competitive inhibition experiments, 2×10^9 pfu of phage was co-injected with 100 μg of corresponding peptide or an unrelated control peptide.
The tumor-homing ability of HCT63, HCT69 and HCT74 phages were further confirmed by peptide competitive inhibition experiment. Mice bearing HCT116 xenografts were co-injected with HCT63, HCT69 and HCT74 phages clones and the homologous cognate synthetic peptide; pHCT63, pHCT69 and pHCT74 peptides (SEQ ID NOs: 1-3, respectively), respectively.

[3] = system: HCT116 cells; assay: ELISA screening of phage clones on HCT116 cells (cellular ELISA); format: binding, human; details: HCT116, cell line panel
Procedure: (§2) The selected phages were further identified by ELISA screening. 1×10^4 cells were seeded into each well of 96-well ELISA plates (Falcon, Calif., USA) overnight and were fixed with 2% paraformaldehyde or methanol/acetone (1:1) for 10 min at RT. The plates were washed twice with PBS and were blocked with 1% BSA in PBS (w/v) for 30 min at RT. Then individual phage clones were added and incubated for 1 hr at RT. Following washing three times with PBS, the plates were incubated with horseradish peroxidase (HRP)-conjugated mouse anti-M13 phage antibody (GE Healthcare) at 1:2000 dilution for 1 hr at RT. The plates were washed three times with PBS again, and were subsequently incubated with the peroxidase substrate o-phenylenediamine dihydrochloride (OPD; Sigma) plus H2O2. The reaction was terminated by 3 N HCl, and the absorbance was measured using microplate reader (Model 680, BioRad) at 490 nm.

[4] = system: B16-F10; assay: Cellular ELISA of phage clones; format: binding, mouse
Procedure: as §2, with “nm. To evaluate the binding activities of the three selected phage clones to various human cancer cell lines, cellular ELISA was performed to detect sixteen types of human cancer cell lines, including A498, HTB-10, B16-F10, SKOV3, PC-3, U2OS, 1112SK, […], SAS, H460, MIA Paca-2, HCT116, HUVAC, CL1-5, Mahlavu, and MDA-MB-231.” for “nm.”

[5] = system: peripheral blood mononuclear cells (PBMC); assay: Flow cytometry binding of phage clones to normal cells; details: human PBMC
Procedure: (§3) Cells were grown to 70-80% confluence and were harvested with 10 mM EDTA in PBS. Peripheral blood mononuclear cells were prepared by using Ficoll-Paque Plus density gradient separation. After washing and suspending the cells with FACS buffer (PBS containing 1% fetal bovine serum), the cells were incubated for 1 hr at 4° C. with 5×10^9, 1×10^9 cfu individual phage clones or control phage, respectively. After washing twice with FACS buffer, cells were incubated with mouse anti-M13 monoclonal antibody (GE Healthcare) at 1:2000 dilution for 1 hr followed by 30 min with phycoerythrin (PE)-conjugated goat anti-mouse secondary antibody (Jackson ImmunoResearch) at 1:250 dilution at 4° C. The emission fluorescence signals were measured using FACSCantoll (Becton Dickinson) and were analyzed by FlowJo software.

[6] = system: HCT116 xenografts; assay: In vivo tumor homing, phage titer in tumor and organs; set-up: species or system mice; details: 2×10^11 pfu i.v., PBS perfusion; vs brain, lungs, heart
Procedure: as §1
To investigate the targeting ability of the selected phage clones in vivo, mice bearing HCT116 xenografts (300 mm^3) were injected with 2×10^11 pfu of either the selected phages or control phage through the tail vein. Phages were circulated and then were perfused with PBS buffer to wash out non-specific binders in circulation. After perfusion, we recovered and determined the […] of phage in tumor masses and normal organs.

[7] = system: SAS; assay: Cellular ELISA of phage clones; format: binding, human
Procedure: as §2, with “nm. To evaluate the binding activities of the three selected phage clones to various human cancer cell lines, cellular ELISA was performed to detect sixteen types of human cancer cell lines, including A498, HTB-10, B16-F10, SKOV3, PC-3, U2OS, 1112SK, […], SAS, H460, MIA Paca-2, HCT116, HUVAC, CL1-5, Mahlavu, and MDA-MB-231.” for “nm.”

[8] = system: PC-3; assay: Cellular ELISA of phage clones; format: binding, human
Procedure: as §2, with “nm. To evaluate the binding activities of the three selected phage clones to various human cancer cell lines, cellular ELISA was performed to detect sixteen types of human cancer cell lines, including A498, HTB-10, B16-F10, SKOV3, PC-3, U2OS, 1112SK, […], SAS, H460, MIA Paca-2, HCT116, HUVAC, CL1-5, Mahlavu, and MDA-MB-231.” for “nm.”

[9] = system: CL1-5; assay: Cellular ELISA of phage clones; format: binding, human
Procedure: as §2, with “nm. To evaluate the binding activities of the three selected phage clones to various human cancer cell lines, cellular ELISA was performed to detect sixteen types of human cancer cell lines, including A498, HTB-10, B16-F10, SKOV3, PC-3, U2OS, 1112SK, […], SAS, H460, MIA Paca-2, HCT116, HUVAC, CL1-5, Mahlavu, and MDA-MB-231.” for “nm.”

[10] = system: Mahlavu; assay: Cellular ELISA of phage clones; format: binding, human
Procedure: as §2, with “nm. To evaluate the binding activities of the three selected phage clones to various human cancer cell lines, cellular ELISA was performed to detect sixteen types of human cancer cell lines, including A498, HTB-10, B16-F10, SKOV3, PC-3, U2OS, 1112SK, […], SAS, H460, MIA Paca-2, HCT116, HUVAC, CL1-5, Mahlavu, and MDA-MB-231.” for “nm.”

[11] = system: H460; assay: Cellular ELISA of phage clones; format: binding, human
Procedure: as §2, with “nm. To evaluate the binding activities of the three selected phage clones to various human cancer cell lines, cellular ELISA was performed to detect sixteen types of human cancer cell lines, including A498, HTB-10, B16-F10, SKOV3, PC-3, U2OS, 1112SK, […], SAS, H460, MIA Paca-2, HCT116, HUVAC, CL1-5, Mahlavu, and MDA-MB-231.” for “nm.”

[12] = system: HUVAC; assay: Cellular ELISA of phage clones; format: binding, human
Procedure: as §2, with “nm. To evaluate the binding activities of the three selected phage clones to various human cancer cell lines, cellular ELISA was performed to detect sixteen types of human cancer cell lines, including A498, HTB-10, B16-F10, SKOV3, PC-3, U2OS, 1112SK, […], SAS, H460, MIA Paca-2, HCT116, HUVAC, CL1-5, Mahlavu, and MDA-MB-231.” for “nm.”

[13] = system: H184; assay: Cellular ELISA of phage clones; format: binding, human
Procedure: as §2, with “nm. To evaluate the binding activities of the three selected phage clones to various human cancer cell lines, cellular ELISA was performed to detect sixteen types of human cancer cell lines, including A498, HTB-10, B16-F10, SKOV3, PC-3, U2OS, 1112SK, […], SAS, H460, MIA Paca-2, HCT116, HUVAC, CL1-5, Mahlavu, and MDA-MB-231.” for “nm.”

[14] = system: A498; assay: Cellular ELISA of phage clones; format: binding, human
Procedure: as §2, with “nm. To evaluate the binding activities of the three selected phage clones to various human cancer cell lines, cellular ELISA was performed to detect sixteen types of human cancer cell lines, including A498, HTB-10, B16-F10, SKOV3, PC-3, U2OS, 1112SK, […], SAS, H460, MIA Paca-2, HCT116, HUVAC, CL1-5, Mahlavu, and MDA-MB-231.” for “nm.”

[15] = system: U2OS; assay: Cellular ELISA of phage clones; format: binding, human
Procedure: as §2, with “nm. To evaluate the binding activities of the three selected phage clones to various human cancer cell lines, cellular ELISA was performed to detect sixteen types of human cancer cell lines, including A498, HTB-10, B16-F10, SKOV3, PC-3, U2OS, 1112SK, […], SAS, H460, MIA Paca-2, HCT116, HUVAC, CL1-5, Mahlavu, and MDA-MB-231.” for “nm.”

[16] = system: 1112SK; assay: Cellular ELISA of phage clones; format: binding, human
Procedure: as §2, with “nm. To evaluate the binding activities of the three selected phage clones to various human cancer cell lines, cellular ELISA was performed to detect sixteen types of human cancer cell lines, including A498, HTB-10, B16-F10, SKOV3, PC-3, U2OS, 1112SK, […], SAS, H460, MIA Paca-2, HCT116, HUVAC, CL1-5, Mahlavu, and MDA-MB-231.” for “nm.”

[17] = system: SKOV3; assay: Cellular ELISA of phage clones; format: binding, human
Procedure: as §2, with “nm. To evaluate the binding activities of the three selected phage clones to various human cancer cell lines, cellular ELISA was performed to detect sixteen types of human cancer cell lines, including A498, HTB-10, B16-F10, SKOV3, PC-3, U2OS, 1112SK, […], SAS, H460, MIA Paca-2, HCT116, HUVAC, CL1-5, Mahlavu, and MDA-MB-231.” for “nm.”

[18] = system: MIA Paca-2; assay: Cellular ELISA of phage clones; format: binding, human
Procedure: as §2, with “nm. To evaluate the binding activities of the three selected phage clones to various human cancer cell lines, cellular ELISA was performed to detect sixteen types of human cancer cell lines, including A498, HTB-10, B16-F10, SKOV3, PC-3, U2OS, 1112SK, […], SAS, H460, MIA Paca-2, HCT116, HUVAC, CL1-5, Mahlavu, and MDA-MB-231.” for “nm.”

[19] = system: MDA-MB-231; assay: Cellular ELISA of phage clones; format: binding, human
Procedure: as §2, with “nm. To evaluate the binding activities of the three selected phage clones to various human cancer cell lines, cellular ELISA was performed to detect sixteen types of human cancer cell lines, including A498, HTB-10, B16-F10, SKOV3, PC-3, U2OS, 1112SK, […], SAS, H460, MIA Paca-2, HCT116, HUVAC, CL1-5, Mahlavu, and MDA-MB-231.” for “nm.”

[20] = system: HT29; assay: Flow cytometry surface binding of phage clones; set-up: species or system human
Procedure: as §3

[21] = system: SW620; assay: Flow cytometry surface binding of phage clones; set-up: species or system human
Procedure: as §3

[22] = system: COLO205; assay: Flow cytometry surface binding of phage clones; set-up: species or system human
Procedure: as §3

[23] = system: LS174T; assay: Flow cytometry surface binding of phage clones; set-up: species or system human
Procedure: as §3

[24] = system: HCT116 cells; assay: Flow cytometry surface binding of phage clones; set-up: species or system human
Procedure: as §3

[25] = system: HCT116 xenografts; assay: Immunohistochemical localization of phages in xenograft tumor and organs; format: in vivo, mice; details: tumor vs brain, heart, lungs, colon
Procedure: The tissue samples from in vivo phage homing experiment were embedded in frozen blocks. To evaluate the phage distribution in each tissue by immunohistochemistry, the frozen specimens were cut to 8-μm-thick sections and were collected on coated slides. The slides were washed with cold PBS to remove OCT and were fixed with 4% paraformaldehyde for 10 min at RT. To block endogenous peroxidase activity, the slides were soaked with 3% hydrogen peroxide in methanol for 30 min at RT. The nonspecific antibody binding sites were blocked by immersing the section with 1% BSA in PBS for 30 min at RT. The tissue sections were incubated with mouse anti-M13 monoclonal antibody at 1:250 dilution for 1 hr, followed by adding Super Enhancer reagent (Super SENSITIVE™ Polymer HRP Detection System/DAB, BioGenex) for 20 min and Poly-HRP reagent (BioGenex) for 30 min. After washing, the sections were developed with DAB (3,3′-diaminobenzidine) Chromogen (BioGenex) supplemented with Stable DAB buffer. The reaction was stopped by adding PBS. For nuclei staining, the slides were immersed in hematoxylin for 5 min, and were then mounted with mounting solution to terminate the reaction. The images of sections were taken and analyzed using automated acquisition system (TissueGnostics).

`CCC1=C[C@@H]2CN(C1)Cc1c([nH]c3ccccc13)[C@@](C(=O)OC)(c1cc3c(cc1OC)N(C)[C@H]1[C@@](O)(C(=O)OC)[C@H](OC(C)=O)[C@]4(CC)C=CCN5CC[C@]31[C@@H]54)C2` [Vinorelbine, vinorelbine] was tested, and the cytotoxicity profile [1] was “significantly better cytotoxicity profiles”.

RLNLDIIAVTSV (HCT-63) [pHCT63] was tested, and the “inhibition of phage recovery from tumor tissue by cognate peptide” value [2] was “markedly inhibited the recovery of phage particles from tumor tissue”.

In the case of RLNLDIIAVTSV [HCT63], the “binding by cellular ELISA” value [3] is reported as “high binding specificity”, the “binding by cellular ELISA” value [4] is reported as “high binding specificity” and the “binding activity to PBMC (normal cells) by FACS” value [5] is reported as “not to normal cells”. The “phage accumulation in tumor mass vs normal organs (phage titer)” value [6] was “significantly accumulated in the tumor mass”, the “binding by cellular ELISA” value [7] was “high binding specificity” and the “binding by cellular ELISA” value [8] was “high binding specificity”. The “binding by cellular ELISA” value [9] was “high binding specificity”, the “binding by cellular ELISA” value [10] was “high binding specificity” and the “binding by cellular ELISA” value [11] was “high binding specificity”. For the same compound, the “binding by cellular ELISA” value [12] was “high binding specificity”, the “binding by cellular ELISA” value [13] was “high binding specificity” and the “binding by cellular ELISA” value [14] was “high binding specificity”. The “binding by cellular ELISA” value [15] was “high binding specificity”, the “binding by cellular ELISA” value [16] was “high binding specificity” and the “binding by cellular ELISA” value [17] was “high binding specificity”. The “binding by cellular ELISA” value [18] was “high binding specificity”, the “binding by cellular ELISA” value [19] was “high binding specificity” and the “binding activity by FACS” value [20] was “reacted strongly”. For the same compound, the “binding activity by FACS” value [21] was “reacted strongly”, the “binding activity by FACS” value [22] was “moderately” and the “binding activity by FACS” value [23] was “reacted strongly”. The “cell surface-binding activity by flow cytometry” value [24] was “reacted strongly”, the “phage localization by immunostaining of tissue sections” value [25] was “selectively localized in tumor tissues” and the “phage localization by immunostaining of tissue sections” value ([25]; listed as HCT-63) was “strong accumulated in the tumor”.
